# Active and inactive are the calls of the source. The rule behind the calls is not given here.
# Columns and labels:
# [1] = biological target: T1, Transmembrane protease serine 2 (Homo sapiens, UniProt O15393); experiment: Inhibition of recombinant TMPRSS2 (unknown origin) extracted from baculovirus infected in Sf9 cells assessed as residual activity using Boc-QAR-AMC as substrate at 1 nM measured after 1 hr by fluorescence based analysis relative to control
# [2] = tested on: SARS-CoV-2; experiment: Antiviral activity against SARS-CoV-2 pseudotyped with delta spike protein infected in human Calu-3 cells assessed as prevention of virus-like particle cellular entry at 300 nM preincubated with cells for 3 hrs followed by viral infection and measured after 72 hrs by ONE-Glo-Ex luciferase assay relative to control; format: functional, Severe acute respiratory syndrome coronavirus 2; conditions: time 75 hrs
# [3] = biological target: T1, Transmembrane protease serine 2; experiment: Inhibition of recombinant TMPRSS2 (unknown origin) extracted from baculovirus infected in Sf9 cells using Boc-QAR-AMC as substrate measured after 1 hr by fluorescence based analysis
# [4] = tested on: Calu-3; experiment: Cytotoxicity against human Calu-3 cells assessed as cell viability at 10 uM measured after 72 hrs by luminescence based Cell-Titer-Glo assay; format: toxicity; conditions: calu-3, 72 h
# [5] = tested on: SARS-CoV-2; experiment: Antiviral activity against SARS-CoV-2 EG.5.1 infected in human Calu-3 cells assessed as reduction in residual intracellular nucleocapsid value at 1 uM preincubated with cells for 3 hrs followed by viral infection and measured after 48 hrs by immunostaining based analysis; format: functional, organism-based; conditions: Severe acute respiratory syndrome coronavirus 2, time 51.0 hrs
# [6] = tested on: SARS-CoV-2; experiment: Antiviral activity against SARS-CoV-2 EG.5.1 infected in human Calu-3 cells assessed as reduction in residual intracellular nucleocapsid value at 1 uM preincubated with cells for 3 hrs followed by viral infection and measured after 48 hrs by immunostaining based analysis relative to control; format: functional, Severe acute respiratory syndrome coronavirus 2; conditions: time 51 hrs
# [7] = biological target: T1, Transmembrane protease serine 2; experiment: Inhibition of recombinant das TMPRSS2 (unknown origin) extracted from baculovirus infected in Sf9 cells assessed as inhibition constant using Boc-QAR-AMC as substrate measured after 1 hr by fluorescence based analysis
# [8] = biological target: Procathepsin L (Homo sapiens, UniProt P07711); experiment: Inhibition of recombinant human C-terminal 6 his-tagged Cathepsin L assessed as inhibition constant using Z-LR-AMC as peptide substrate incubated for 1 hr by fluorescence based analysis
# [9] = tested on: SARS-CoV-2; experiment: Antiviral activity against SARS-CoV-2 EG.5.1 infected in human Calu-3 cells preincubated with cells for 3 hrs followed by viral infection and measured after 48 hrs by immunostaining based analysis; format: functional, organism-based; conditions: Severe acute respiratory syndrome coronavirus 2, EG.5.1, Calu-3
# [10] = tested on: SARS-CoV-2; experiment: Antiviral activity against SARS-CoV-2 JN.1 infected in human Calu-3 cells preincubated with cells for 3 hrs followed by viral infection and measured after 48 hrs by immunostaining based analysis; format: functional, organism-based; conditions: Severe acute respiratory syndrome coronavirus 2, JN.1, Calu-3
# [11] = Cytotoxicity against human Calu-3 cells assessed as cell viability measured after 72 hrs by luminescence based Cell-Titer-Glo assay; format: toxicity
# [12] = biological target: T1, Transmembrane protease serine 2; experiment: Inhibition of full length TMPRSS2 (unknown origin) expressed in African green monkey Vero E6 cells using Boc-QAR-AMC as substrate incubated for 24 hrs by microplate reader analysis; format: cell-based
# [13] = Toxicity in C57BL/6J mouse at 5 mg/kg, iv measured for 24 hrs; format: organism-based; conditions: in vivo
# [14] = Toxicity in C57BL/6J mouse at 5 mg/kg, ISIN (Intranasal) measured for 24 hrs; format: organism-based; conditions: in vivo, inhaled_or_intranasal
# [15] = Half life in C57BL/6J mouse plasma at 5 mg/kg, iv measured up to 24 hrs by LC-MS/MS analysis; format: ADME, organism-based; conditions: in vivo
# [16] = Half life in C57BL/6J mouse plasma at 5 mg/kg, ISIN (Intranasal) measured up to 24 hrs by LC-MS/MS analysis; format: ADME, organism-based; conditions: in vivo, inhaled_or_intranasal
# [17] = Bioavailability in C57BL/6J mouse at 5 mg/kg, ISIN (Intranasal) measured up to 24 hrs by LC-MS/MS analysis; format: ADME, organism-based; conditions: in vivo, inhaled_or_intranasal
# [18] = Drug concentration in C57BL/6J mouse plasma measured after 15 mins; format: ADME; conditions: read-out: Drug uptake
# T1 sequence (O15393 1-255 limits assumed): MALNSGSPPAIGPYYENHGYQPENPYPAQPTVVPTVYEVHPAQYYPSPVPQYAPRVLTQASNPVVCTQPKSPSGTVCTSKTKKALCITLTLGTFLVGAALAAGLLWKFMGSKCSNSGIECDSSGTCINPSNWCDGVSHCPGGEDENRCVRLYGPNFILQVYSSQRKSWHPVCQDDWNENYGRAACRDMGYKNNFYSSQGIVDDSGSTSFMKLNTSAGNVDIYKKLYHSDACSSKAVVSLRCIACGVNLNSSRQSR
# T1 sequence (O15393 256-492 limits assumed): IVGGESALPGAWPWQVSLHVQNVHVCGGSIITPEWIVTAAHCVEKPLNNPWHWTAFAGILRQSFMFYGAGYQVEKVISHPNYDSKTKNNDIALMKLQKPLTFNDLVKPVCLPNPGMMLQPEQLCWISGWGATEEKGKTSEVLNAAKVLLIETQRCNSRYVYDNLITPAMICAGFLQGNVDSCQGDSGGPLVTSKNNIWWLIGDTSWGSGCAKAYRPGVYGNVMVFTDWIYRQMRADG
# Chain of Procathepsin L (P07711 114-333 limits assumed): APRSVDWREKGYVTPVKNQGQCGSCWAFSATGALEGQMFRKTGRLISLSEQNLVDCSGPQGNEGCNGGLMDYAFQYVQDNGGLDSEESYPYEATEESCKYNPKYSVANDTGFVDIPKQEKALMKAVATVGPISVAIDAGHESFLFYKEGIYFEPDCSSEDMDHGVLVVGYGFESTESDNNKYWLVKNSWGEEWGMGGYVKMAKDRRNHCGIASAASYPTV
smiles,measurement,setting,value
N=C(N)NCCC[C@H](NC(=O)[C@H](Cc1ccccc1)NC(=O)[C@H](CCC(N)=O)NC(=O)OCc1ccccc1)C(=O)c1nccs1,Activity,[1],3%
same,Activity,[2],13%
same,IC50,[3],0.35 nM
same,Activity,[4],Non-toxic
same,Activity,[5],Active
same,Activity,[6],2.2%
same,Ki,[7],0.03 nM
same,inhibition,[8],inactive
same,EC50,[9],0.3 nM
same,EC50,[10],0.09 nM
same,CC50 at 72 h,[11],110000 nM
same,IC50,[12],0.59 nM
same,Activity,[13],Non-toxic
same,Activity,[14],Non-toxic
same,t1/2,[15],4.79 h
same,t1/2,[16],1.8 h
same,F,[17],10.9%
same,concentration at 0.25 h,[18],182 ng/mL
